Experimental data from PMC3543424, “Antitumor Activity of Antimicrobial Peptides Containing CisoDGRC in CD13 Negative Breast Cancer Cells” (PLoS ONE, 2013).
*1 amine or outer side, *2 acyl side, *3 side chain or, on linkers, in order; H or OH if unused. Where a SMILES comes first, the peptide text is derived from it. Bridges are numbered along the chain shown (N, C = ends). [ ]: non-standard residue; d: D form. βAsp = O=C(O)[C@H](CC(=O)[*:2])N[*:1]

Tests used:
MDA-MB-231 cells [1] = type: cell-based, human
Method: (§1) The MCF-7 and MDA-MB-231 cells were cultured in 96-well plates at a density of 5×10^4 cells/well. CDAK and CRLK were added to different wells, ranging from 10 µg/ml to 200 µg/ml, respectively. After 24 h, 48 h and 72 h, 3-[4,5-dimethylthiazol- 2-yl]-2,5-diphenyltetrazolium bromide (MTT; Sigma-Aldrich, St. Louis, MO, USA) was added to each well and incubated for 4 h. The MTT was dissolved in 200 µL of Dimethyl sulfoxide (DMSO). Absorbance was detected using a microplate reader at 490 nm. Wells without peptides were used to control cell viability, representing 100% cell survival. Wells without cells were used for the blank of the spectrophotometer.

MCF-7 cells [2] = type: cell-based, human
Method: as §1

HFF = conditions: MTT, 24 h
lung and liver = system: lung and liver; design: species or system BALB/cnu-nu athymic nude mice; conditions: mouse, in vivo, iv, 4 mg/kg
Description: Terminal deoxynucleotidyl teansferase-mediated dUTP nick end-labeling (TUNEL) were examined in the lung and liver using TdT In Situ Apoptosis Detection Kit (Trevigen, Gaithersburg, Maryland, USA) following the manufacturer's protocols. Apoptosis cells were identified as having brown nuclei under a light microscope. The number of apoptosis cells was counted in five random fields (×400) in a blinded manner.

HUVEC = conditions: MTT, 24 h
MDA-MB-231 xenograft [3] = test: Tumor angiogenesis, anti-CD105 immunohistochemistry (microvessel density); type: in vivo, BALB/cnu-nu athymic nude mice; conditions: 4 mg/kg intravenously, tumor sections, P<0.05
Method: Tumor-bearing athymic nude mice were sacrificed and the weights of the tumors were recorded. The tumor tissue, liver as well as lung tissues of mice were paraffin-embedded. The tumor paraffin sections were incubated for 10 minutes with 3% H2O2 deionized water to eliminate the endogenous peroxidase activity, washed in PBS three times for five minutes, 5% goat serum was added for 15 minutes, then incubated with mouse monoclonal CD105 antibody (Abcam, Cambridge, UK) at 4°C overnight and washed with PBS three times for five minutes. The biotin-labeled goat anti-mouse IgG were incubated with sections at 37°C for 15 minutes, and then the sections were washed by PBS three times for five minutes. Horseradish peroxidase-avidin enzyme working solution was added at 37°C for 15 minutes and washed with PBS. DAB was added to develop the color, and the nuclei were counterstained mildly with hematoxylin. The liver and lung paraffin sections were stained with hemaetoxylin and eosin (HE) and were independently evluated by two pathologists.

MDA-MB-231 xenograft [4] = test: MDA-MB-231 xenograft growth in athymic nude mice; type: in vivo, BALB/cnu-nu athymic nude mice; conditions: 4 mg/kg intravenously, three times a week for three weeks, five mice per group
Method: The experiment was approved by the Animal Care and Use Committee of Xi'an Jiaotong University. MDA-MB-231 cells (2×10^6) were injected subcutaneously into the right flank of 6- to 9-week-old female BALB/cnu-nu athymic nude mice (Shanghai Silaike Laboratory Animal Co., Ltd, Shanghai, China) weighing 18 to 20 g. When the tumor reached 60 mm^3 in size, the mice were randomized into three groups: (1) CDAK (4 mg/kg); (2) CRLK (4 mg/kg); and (3) saline (control). They were then injected intravenously (50 µL/injection) three times a week for three weeks. Tumor volume was measured three times a week using calipers to calculate the tumor size using the following formula: length×width^2×0.5. All values are expressed as the mean ± SD.
Tumor-bearing athymic nude mice were sacrificed and the weights of the tumors were recorded. The tumor tissue, liver as well as lung tissues of mice were paraffin-embedded. The tumor paraffin sections were incubated for 10 minutes with 3% H2O2 deionized water to eliminate the endogenous peroxidase activity, washed in PBS three times for five minutes, 5% goat serum was added for 15 minutes, then incubated with mouse monoclonal CD105 antibody (Abcam, Cambridge, UK) at 4°C overnight and washed with PBS three times for five minutes. […]

MDA-MB-231 cells [5] = test: Cell cycle, BrdU/PI flow cytometry; type: cell-based, human; conditions: MDA-MB-231, 24 h, CDAK 212 µg/ml, CRLK 200 µg/ml
Method: (§2) After being incubated with CDAK (190 µg/ml and 212 µg/ml), CRLK (200 µg/ml) and control (PBS) for 24 h, 20 µM BrdU (Sigma-Aldrich, St. Louis, MO, USA) was added to the media for 30 min. Cells were harvested and fixed in iced-cold 75% ethanol for 24 h. Then, the cells were treated with 4N HCL, neutralized by 0.1 M borax, and washed with PBS containing 0.05% bovine serum albumin (BSA). The cells were incubated sequentially with anti-BrdU antibody (santa cruz biotechnology, California, US) and FITC-conjugate anti-mouse secondary antibody in the presence of 0.5%BSA and 0.5%Tween-20. Cells were added PI (50 µg/ml) and RNase A (50 µg/ml) for 20 minutes and analyzed by flow cytometry. Select a forward scatter (FSC) versus side scatter (SSC) window defined single cells and exclude cell doublets.

MCF-7 cells [6] = test: Cell cycle, BrdU/PI flow cytometry; type: cell-based, human; conditions: MCF-7, 24 h, CDAK 190 µg/ml, CRLK 200 µg/ml
Method: as §2

MDA-MB-231 cells [7] = test: DNA ladder (DNA fragmentation) assay; type: cell-based, human; conditions: MDA-MB-231, 24 h; CDAK 212 µg/ml, CRLK 200 µg/ml; 1% agarose gel
Method: (§3) For DNA fragmentation analysis, DAN of cells which were treated with CDAK (190 µg/ml and 212 µg/ml), CRLK (200 µg/ml) and control (PBS) for 24 h were extracted using a selective apoptotic DNA ladder extraction KIT (Biomed Company, Beijing, China) and were analyzed using 1% agarose gels. DNA was visualized with ethidium bromide staining.

MCF-7 cells [8] = test: DNA ladder (DNA fragmentation) assay; type: cell-based, human; conditions: MCF-7, 24 h; CDAK 190 µg/ml, CRLK 200 µg/ml; 1% agarose gel
Method: as §3

Row | Molecule | concentration with significant cytotoxicity (MDA-MB-231 cells [1]) | IC50 (peptide concentration that induces 50% inhibition of cell growth) (MDA-MB-231 cells [1]; MDA-MB-231, MTT, 24 h) | concentration with significant cytotoxicity (MCF-7 cells [2]) | IC50 (peptide concentration that induces 50% inhibition of cell growth) (MCF-7 cells [2]; MCF-7, MTT, 24 h) | IC50 (peptide concentration that induces 50% inhibition of cell growth) (HFF) | apoptosis rate (%) in liver (lung and liver) | apoptosis rate (%) in lung (lung and liver) | IC50 (peptide concentration that induces 50% inhibition of cell growth) (HUVEC) | inhibition of angiogenesis (microvessel density, anti-CD105) (MDA-MB-231 xenograft [3]) | tumor volume compared with control group (MDA-MB-231 xenograft [4]) | cells in S phase (MDA-MB-231 cells [5]) | cells in S phase (MCF-7 cells [6]) | formation of DNA nucleosome ladder (MDA-MB-231 cells [7]) | formation of DNA nucleosome ladder (MCF-7 cells [8])
1 | CC[C@H](C)[C@H](NC(=O)[C@H](CC(C)C)NC(=O)[C@H](CC(C)C)NC(=O)[C@@H]1CSSC[C@H](N)C(=O)N[C@H](C(=O)O)CC(=O)NCC(=O)N[C@@H](CCCNC(=N)N)C(=O)N1)C(=O)N[C@H](C(=O)N[C@@H](CCCCN)C(=O)N[C@@H](CC(C)C)C(=O)N[C@@H](C)C(=O)N[C@@H](CCCCN)C(=O)N[C@@H](CC(C)C)C(=O)N[C@@H](C)C(=O)N[C@@H](CCCCN)C(=O)N[C@@H](CCCCN)C(=O)N[C@@H](CC(C)C)C(=O)N[C@@H](C)C(=O)N[C@@H](CCCCN)C(=O)N[C@@H](CC(C)C)C(=O)N[C@@H](C)C(=O)N[C@@H](CCCCN)C(=O)O)[C@@H](C)CC [CDAK] (H-C[βAsp]GRCLLIIKLAKLAKKLAKLAK-OH; disulfide 1-5) | > 40000 ng/mL | 212 µg/mL | > 40000 ng/mL | 190 µg/mL | 912 µg/mL | 0.38%±0.14 | 0.16±0.02% | 861 µg/mL | – | – | – | – | – | –
2 | CRDGCALKAIAKLKLKKLILALK [CRLK] | – | – | – | – | – | 0.35%±0.23 | 0.17±0.01% | – | not | did not reach a statistically significance | 23.3% | 19.7% | no DNA ladder was detected | no DNA ladder was detected
